Target: recombinant human NSD2 (Homo sapiens (Human), UniProt O96028)
Experiment: NSD2 inhibitory activity, modified RBC HotSpot HMT Assay (3H-SAM, oligonucleosome substrate)
Format: biochemical
Settings: recombinant human NSD2 (2 nM), chicken oligonucleosomes 0.05 mg/ml, 3H-SAM 1 μM, 1 hour at 30° C.
Description: Exemplary compounds were tested for NSD2 inhibitory activity using a modified RBC HotSpot HMT Assay.
A reaction mixture was prepared by adding oligonucleosomes from Chicken (0.05 mg/ml) to freshly prepared reaction buffer containing 50 mM Tris-HCl (pH 8.5), 50 mM NaCl, 5 mM MgCl2, 0.01% Brij35, 1 mM DTT, and 1% DMSO followed by the addition of recombinant human NSD2, (amino acids 2-end) with N-terminal His tag (2 nM; GenBank Accession No. NM_001042424; MW=155.5 kDa; expressed in Sf9 insect cells) and gentle mixing. The test compounds were diluted in DMSO, added to the reaction mixture in nanoliter amounts by using Acoustic Technology (Echo 550, LabCyte Inc. Sunnyvale, CA) and incubated for 20 minutes at room temperature. The reaction was initiated by the addition of S-Adenosyl-L-[methyl-^3H] methionine (3H-SAM; 1 μM), and the mixture was incubated for 1 hour at 30° C. The reaction mixture was delivered to filter paper and the methylated substrate was quantified by scintillation counting. Data analysis was performed using Excel and GraphPad Prism software for IC50 curve fits. For additional information on the histone methyltransferase assay, see, for example, Horiuchi K Y, et al., “Assay Development for Histone Methyltransferases,” Assay Drug Dev Technol. 2013 May; 11 (4): 227-36.

recombinant human NSD2, sequence (O96028 2-1365 limits assumed): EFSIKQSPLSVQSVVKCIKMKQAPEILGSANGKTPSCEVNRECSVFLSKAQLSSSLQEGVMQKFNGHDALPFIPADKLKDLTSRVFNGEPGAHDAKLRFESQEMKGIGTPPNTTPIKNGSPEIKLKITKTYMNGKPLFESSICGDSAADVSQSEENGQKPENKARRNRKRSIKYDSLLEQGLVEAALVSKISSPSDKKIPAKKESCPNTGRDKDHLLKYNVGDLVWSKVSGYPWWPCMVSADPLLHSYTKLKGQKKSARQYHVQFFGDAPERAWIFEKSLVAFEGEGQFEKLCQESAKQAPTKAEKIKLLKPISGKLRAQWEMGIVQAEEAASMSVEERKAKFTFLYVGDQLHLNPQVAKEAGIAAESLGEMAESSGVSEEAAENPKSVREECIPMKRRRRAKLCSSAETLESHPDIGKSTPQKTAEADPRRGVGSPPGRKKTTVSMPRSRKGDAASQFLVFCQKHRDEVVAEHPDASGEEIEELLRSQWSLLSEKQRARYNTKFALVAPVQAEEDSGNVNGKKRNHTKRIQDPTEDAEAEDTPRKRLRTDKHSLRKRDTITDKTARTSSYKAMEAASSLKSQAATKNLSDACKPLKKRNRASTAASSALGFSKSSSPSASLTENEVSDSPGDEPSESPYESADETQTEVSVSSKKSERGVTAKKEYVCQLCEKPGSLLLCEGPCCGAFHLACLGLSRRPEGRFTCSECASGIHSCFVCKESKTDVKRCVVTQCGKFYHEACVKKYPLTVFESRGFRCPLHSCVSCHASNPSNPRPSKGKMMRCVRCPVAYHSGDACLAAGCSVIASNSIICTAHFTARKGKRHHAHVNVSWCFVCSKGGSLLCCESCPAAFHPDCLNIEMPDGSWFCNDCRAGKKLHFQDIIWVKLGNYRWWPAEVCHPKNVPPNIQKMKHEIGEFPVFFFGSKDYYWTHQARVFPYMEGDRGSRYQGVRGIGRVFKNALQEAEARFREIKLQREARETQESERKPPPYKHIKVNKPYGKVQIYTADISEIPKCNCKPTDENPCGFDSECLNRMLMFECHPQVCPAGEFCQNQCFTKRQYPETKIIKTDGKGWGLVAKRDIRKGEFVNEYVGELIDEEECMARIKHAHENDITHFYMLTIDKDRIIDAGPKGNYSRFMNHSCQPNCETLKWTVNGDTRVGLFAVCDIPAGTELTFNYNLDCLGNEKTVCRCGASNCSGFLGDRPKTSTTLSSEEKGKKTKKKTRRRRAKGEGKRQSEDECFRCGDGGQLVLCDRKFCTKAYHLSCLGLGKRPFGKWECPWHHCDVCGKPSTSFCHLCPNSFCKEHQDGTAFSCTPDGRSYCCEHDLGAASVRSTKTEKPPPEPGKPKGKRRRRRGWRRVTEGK

SMILES	IC50 [nM]
COc1cc(F)c(-c2ccc(N3CCC[C@](N)([C@H](O)C(F)F)C3)c(Cn3cnc4c(N)ncnc43)n2)cc1F [III-1, (S)-1-((R)-3-amino-1-(2-((6-amino-9H-purin-9-yl)methyl)-6-(2,5-difluoro-4-methoxyphenyl)pyridin-3-yl)piperidin-3-yl)-2,2-difluoroethan-1-ol]	> 1000
COc1cc(F)c(-c2cnc(N3CCC[C@](N)([C@H](O)C(F)F)C3)c(Cn3cnc4c(N)ncnc43)c2)cc1F [II-1, (S)-1-((R)-3-amino-1-(3-((6-amino-9H-purin-9-yl)methyl)-5-(2,5-difluoro-4-methoxyphenyl)pyridin-2-yl)piperidin-3-yl)-2,2-difluoroethan-1-ol]	10 to 1000
COc1cc(F)c(-c2ccc(N3CCC[C@](N)([C@H](O)C(F)F)C3)c(Cn3cnc4c(N)ncnc43)c2)cc1F [Compound I-1, (S)-1-((R)-3-amino-1-(3-((6-amino-9H-purin-9-yl)methyl)-2′,5′-difluoro-4′-methoxy-[1,1′-biphenyl]-4-yl)piperidin-3-yl)-2,2-difluoroethan-1-ol]	1 to 10
